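96-well plates; 48 h exposure; 5 concentrations. Endpoints by linear interpolation between flanking doses. Not reached: highest tested concentration assigned. At the TGI there is no net growth.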
Legend:
Assay in all cases: inhibition of tumour cell growth, NCI panel, 48 h
A549 NSCLC = system: A549 NSCLC
ACHN renal = system: ACHN renal
BT-549 breast = system: BT-549 breast
HS 578T breast = system: HS 578T breast
HT29 colon = system: HT29 colon
MCF7 breast = system: MCF7 breast
NCI-H460 lung = system: NCI-H460 lung
PC-3 prostate = system: PC-3 prostate
TK-10 renal = system: TK-10 renal
U251 CNS = system: U251 CNS

SMILES	TGI (A549 NSCLC)	TGI (ACHN renal)	TGI (BT-549 breast)	TGI (HS 578T breast)	TGI (HT29 colon)	TGI (MCF7 breast)	TGI (NCI-H460 lung)	TGI (PC-3 prostate)	TGI (TK-10 renal)	TGI (U251 CNS)
COc1ccc(Cn2nc(OCc3ccccn3)c3cc([N+](=O)[O-])ccc32)cc1	> 100 µM	> 100 µM	> 100 µM	> 100 µM	> 100 µM	> 100 µM	> 100 µM	> 100 µM	> 100 µM	
CCCCN(CCCC)C(=NCc1ccccc1)NC#N	> 100 µM	65.9 µM			30.1 µM		26.9 µM		85.2 µM	35.7 µM
O=C(C[C@@H]1NCCC[C@H]1O)Cn1cnc2cc(Br)c(Cl)cc2c1=O	0.143 µM	1.21 µM	0.259 µM	1.36 µM	0.191 µM	20.3 µM	> 100 µM	1.4 µM		0.256 µM
Cc1ccc2c(c1)c(=O)c1c(NCCN(C)C)ccc3nnn2c31	13.6 µM	17.7 µM			12 µM		10.2 µM		28.3 µM	16.9 µM
COc1cc(C(=O)Nc2nnc(S(N)(=O)=O)s2)cc(OC)c1OC	> 100 µM	> 100 µM	> 100 µM	> 100 µM		> 100 µM	> 100 µM		> 100 µM	> 100 µM
CSc1c(C(C)=O)c(O)n(-c2ccc(Cl)cc2)c(=O)c1C#N	> 100 µM		> 100 µM	> 100 µM	> 100 µM	> 100 µM	> 100 µM	> 100 µM	> 100 µM	> 100 µM
COc1cc(C2SCC(=O)N2NC(=O)c2ccc(NC(C)=O)cc2)cc(OC)c1OC (stereo not drawn)	> 100 µM	> 100 µM	> 100 µM	> 100 µM	> 100 µM	> 100 µM	> 100 µM		> 100 µM	> 100 µM
O=C(Cn1c2ccc(Br)cc2c2nc3ccccc3nc21)NC1CCCCC1	> 100 µM	> 100 µM	> 100 µM	> 100 µM	> 100 µM		> 100 µM	> 100 µM	> 100 µM	> 100 µM
Oc1c2cccc1Cc1cccc3c1OCCOCCOCCOCCOc1c(cccc1Cc1cccc(c1O)C3)C2	> 100 µM	> 100 µM	> 100 µM	> 100 µM	> 100 µM	> 100 µM		> 100 µM	> 100 µM	> 100 µM
CN(C)c1ccc(/C=C(\NC(=O)c2ccccc2)C(=O)Nc2ccccc2C(=O)NN2C(=O)CSC2c2ccc(N(C)C)cc2)cc1 (stereo not drawn)	> 100 µM	> 100 µM	> 100 µM	> 100 µM	> 100 µM	> 100 µM	31.7 µM	> 100 µM		> 100 µM
c1ccc(C2=NN3CN(N2)c2ccccc2OCCCOc2ccccc23)cc1	> 100 µM	> 100 µM			> 100 µM		> 100 µM		> 100 µM	> 100 µM
O=C1c2cc3c(cc2CC12Cc1cc4c(cc1C2)CCC4)CCC3	> 100 µM	> 100 µM		> 100 µM	> 100 µM	> 100 µM	> 100 µM	> 100 µM	> 100 µM	> 100 µM

Source: PubChem BioAssay (NCI)
